Assay results reported in ChEMBL document CHEMBL3421583, “Withanolides with antibacterial activity from Nicandra john-tyleriana” (J Nat Prod, 2015).
The source made the active and inactive calls.

Legend:
Type in all cases: functional, organism-based
[1] = system: Bacillus cereus; experiment: Antibacterial activity against Bacillus cereus at 2000 ppm after 24 to 48 hrs by disk diffusion method
[2] = system: Bacillus cereus; experiment: Antibacterial activity against Bacillus cereus at 2000 ppm after 24 hrs by bioautographic TLC assay
[3] = system: Bacillus cereus; experiment: Bactericidal activity against Bacillus cereus BAC1 at 1000 ppm after 24 hrs
[4] = system: Bacillus cereus; experiment: Bacteriostatic activity against Bacillus cereus BAC1 at 750 ppm after 24 hrs

Measured: Activity

CC1=C(CO)C(=O)O[C@@H]([C@@H](C)[C@H]2C(=O)C[C@H]3[C@@H]4C[C@H]5O[C@]56CC=CC(=O)[C@]6(C)[C@H]4CC[C@]23C)C1
active: all assays above

C[C@]12CC[C@H]3[C@@H](C[C@H]4O[C@]45CC=CC(=O)[C@]35C)[C@@H]1C[C@@H](O)[C@@H]2[C@@H]1C[C@]2(C)C[C@H]1OC(=O)[C@]2(C)O
active: [1] | [2]
